The target of experiment [1] is TLR2 (Homo sapiens, UniProt O60603). Description: Affinity of TLR2 agonist for TLR2. Type of experiment: binding. Conditions: compared with Pam3; Figure S3A. The text has this: Pam3 is a lipopeptide and serves as a TLR2 agonist through binding to TLR2/TLR1 heterodimer. Although Pam3 is widely used as a TLR2 agonist, some intrinsic problems remain in detailed mechanism studies and drug development. The two ester groups of Pam3 can be easily hydrolyzed in plasma, and the hydroxyl group in serine could be readily oxidized in physiological conditions (Figure S1A in Supplementary Material). […] In addition, we displaced serine residue in Pam3 with glycine residue to eliminate this chiral center (Figures S1A,B in Supplementary Material). Since the third lysine residue in Pam3 is crucial for H bonding, we kept three lysine residues in the new molecule and removed the forth lysine residue to further reduce the molecular weight of the new TLR2 agonist, (2S,5S,8S,14R,18R)-2,5,8-tris(4-aminobutyl)-4,7,10,13,21-pentaoxo-14-palmitamido-18-((tetradecylcarbamoyl)oxy)-20-oxa-16-thia-3,6,9,12,22-pentaazahexatriacontan-1-oic acid. It is termed SUP3 (Figure 1A; Figures S1A,B in Supplementary Material). Chemical characterization of SUP3 by ^1H nuclear magnetic resonance and electrospray ionization mass spectrum analysis further confirm the structure (Figures S2A,B in Supplementary Material).
Sequence of TLR2 (O60603 21-784, species assumed): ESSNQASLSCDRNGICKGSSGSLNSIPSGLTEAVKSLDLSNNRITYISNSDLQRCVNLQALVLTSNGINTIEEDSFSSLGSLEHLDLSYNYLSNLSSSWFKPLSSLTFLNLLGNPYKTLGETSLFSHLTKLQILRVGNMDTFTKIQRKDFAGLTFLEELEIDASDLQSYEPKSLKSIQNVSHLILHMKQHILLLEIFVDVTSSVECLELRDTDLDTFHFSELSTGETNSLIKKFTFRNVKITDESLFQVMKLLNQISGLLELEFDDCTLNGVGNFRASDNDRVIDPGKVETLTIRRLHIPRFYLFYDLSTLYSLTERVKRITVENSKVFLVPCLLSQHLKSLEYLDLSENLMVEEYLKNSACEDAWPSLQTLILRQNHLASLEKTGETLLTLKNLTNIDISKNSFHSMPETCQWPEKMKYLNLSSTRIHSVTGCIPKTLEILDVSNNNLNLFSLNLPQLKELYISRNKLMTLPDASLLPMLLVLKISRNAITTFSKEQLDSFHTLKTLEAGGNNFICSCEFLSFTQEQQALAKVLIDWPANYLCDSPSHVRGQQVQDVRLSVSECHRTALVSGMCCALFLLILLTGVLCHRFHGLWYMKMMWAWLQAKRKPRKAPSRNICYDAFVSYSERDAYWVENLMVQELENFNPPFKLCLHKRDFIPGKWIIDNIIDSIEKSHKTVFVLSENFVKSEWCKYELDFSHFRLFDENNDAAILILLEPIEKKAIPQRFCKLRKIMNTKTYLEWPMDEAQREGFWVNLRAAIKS

Experiment [2] in a line: Antigen deposition (OVA-AF647) in draining lymph nodes. It is filed as in vivo, mice. The following applies: OVA-AF647 25 µg per mouse s.c. with 2 nmol per mouse, 24 h; vs OVA alone or OVA with Pam3. Here is the method: Wild-type mice were s.c. injected with OVA-AF647 alone (25 µg per mouse; Molecular Probes O-34784), or mixtures of OVA-AF647 with SUP3 (2 nmol per mouse) or Pam3 (2 nmol per mouse) at groin. Inguinal lymph nodes were isolated 24 h post-injection, and then immune cells were analyzed by flow cytometry.
Figure 6 SUP3 enhanced antigen deposition in draining lymph nodes. Mice were immunized at groin by s.c. injection of ovalbumin (OVA)-Alexa Fluor 647 (AF647) (25 µg per mouse) with or without SUP3 (2 nmol per mouse) or Pam3 (2 nmol per mouse) for 24 h. Inguinal lymph nodes were isolated, and immune cells were analyzed for levels of AF647 fluorescence by flow cytometry (A). The number of OVA-AF647 positive cells was calculated in (B). Representative data were from two independent experiments with three mice in each group.

Experiment [3] concerns OT-II CD4^+ T cells. Description: OT-II CD4+ T cell activation in vivo. Also noted: species or system mice. Conditions: OVA 100 µg per mouse s.c. with 2 nmol per mouse, 3 days; vs Pam3. Here is the method: Carboxyfluorescein diacetate succinimidyl ester-stained OT-II CD4^+ T cells (2 × 10^6 cells per mouse) were transferred into mice 1 day prior immunization. Then the recipients were subcutaneously (s.c.) injected with OVA alone (100 µg per mouse), or OVA mixed with SUP3 (2 nmol per mouse) or Pam3 (2 nmol per mouse) at groin. Three days after immunization, OT-II CD4^+ T cells from inguinal lymph nodes were analyzed by flow cytometry.
Figure 5 SUP3 enhanced antigen presentation ability of CD11b^+ conventional dendritic cells (cDCs) and production of antibodies against thymus-dependent (TD) antigens. […] Three days after immunization, division of OT-II CD4^+ T cells from inguinal lymph nodes were analyzed by flow cytometry (B). Absolute numbers of proliferated OT-II CD4^+ T cells were calculated in (C). […] Cells were then thoroughly washed and cocultured with CFSE-stained OT-II CD4^+ T cells for 4 days and analyzed by flow cytometry. (D) The division of OT-II cells was measured by reduced level of CFSE-labeling. (E) Absolute numbers of proliferated T cells from (D) were calculated. (F) SUP3 (2 nmol per mouse), Pam3 (2 nmol per mouse), or PBS were i.v. injected into mice for 1 h, and splenic CD11b^+ cDCs were enriched and analyzed for CD86 expression by flow cytometry. […] The cytokines from supernatant were determined by ELISA (*p < 0.05, **p < 0.01). […]

Where a SMILES comes first, the peptide text is derived from it. The star is where a group is joined. X1 = CCCCCCCCCCCCCCNC(=O)OC[C@H](C*)OC(=O)NCCCCCCCCCCCCCC; Palmitoyl = CCCCCCCCCCCCCCCC(=O)*

`CCCCCCCCCCCCCCCC(=O)N[C@@H](CSC[C@@H](COC(=O)NCCCCCCCCCCCCCC)OC(=O)NCCCCCCCCCCCCCC)C(=O)NCC(=O)N[C@@H](CCCCN)C(=O)N[C@@H](CCCCN)C(=O)N[C@@H](CCCCN)C(=O)O` [SUP3, (2S,5S,8S,14R,18R)-2,5,8-tris(4-aminobutyl)-4,7,10,13,21-pentaoxo-14-palmitamido-18-((tetradecylcarbamoyl)oxy)-20-oxa-16-thia-3,6,9,12,22-pentaazahexatriacontan-1-oic acid] (Palmitoyl-C(X1)GKKK-OH): in experiment [1], the affinity entry is listed as “comparable with Pam3”. The “numbers of antigen-containing CD8+ cDCs, CD11b+ cDCs, macrophages, and monocytes in inguinal lymph nodes” value in experiment [2] is on record as “increased numbers”. The “proliferation of OT-II CD4+ T cells in draining lymph nodes” value in experiment [3] was “more proliferation of OT-II CD4^+ T cells than that with Pam3”.

Source of the values: article PMC5318439, “The Novel Toll-Like Receptor 2 Agonist SUP3 Enhances Antigen Presentation and T Cell Activation by Dendritic Cells” (Frontiers in Immunology, 2017).
